Among the data in patent US20140199327A1, “METHODS OF PROMOTING DIFFERENTIATION” (Genentech, Inc., priority 2011, published 2014) are p21 induction values, retold here.

This assay concerns p21. As to the kind of experiment: p21 and p53 expression in U2-OS cells. Type of assay: cell-based, human. Conditions: etoposide treatment. How it is done:
U2-OS, HOS, SJSA, SAOS, or MG-63 cells were grown to 10-25% confluence and transfected with the plasmids indicated in combination with the marker plasmid pMACS using FuGENE 6 (Sigma).
Transfected cells were sorted with MACS-select H-2K^k microbeads (Miltenyi Biotec). RNA was extracted from cultured or sorted transfected cells with Qiagen RNeasy Mini kits. Protein was extracted from sorted or cultured cells via lysis in NP-40 buffer (1% NP-40, 120 mM NaCl, 50 mM Tris, pH=7.4, 1 mM EDTA) supplemented with protease inhibitor cocktail I and phosphatase inhibitor cocktails 1 and 2 (Calbiochem). Lysates were clarified by centrifugation at 15,000×G for 10 minutes prior to analysis. Protein content was normalized by BCA protein assay (Thermo Scientific). For dual shRNA/siRNA experiments, cells were transfected with DNA expression vectors via Fugene and subsequently transfected with control siRNA (sense-5′-[…]-3′ (SEQ ID NO:20)) or siRNA targeting p21 (5′-[…]-3′ (SEQ ID NO:21)) via nucleofection with program X-001 in nucleofection solution V (Lonza). DT-40 cells were transfected by nucleofection with program B-023 in nucleofection solution T (Lonza).
Rat monoclonal antibodies were raised against the C-terminal 100 amino-acids of human USP1 or WDR48 to produce the monoclonal USP1 antibody 5E10 and WDR48 antibody 9F10. […]

Structures are written as SMILES.

`COc1cc([C@@H]2c3cc4c(cc3[C@@H](O[C@@H]3O[C@@H]5CO[C@@H](C)O[C@H]5[C@H](O)[C@H]3O)[C@H]3COC(=O)[C@H]23)OCO4)cc(OC)c1O` [etoposide]: the p21 induction entry is on record as “induced”.
